Values quoted from earlier work in US20140316796A1, “SYSTEMS, METHODS, AND COMPUTER-READABLE MEDIA FOR LIMITED DISTRIBUTION OF SPECIALTY DRUG USING A COMPUTER HUB OPERATING AT A SINGLE ACCESS POINT” (Jazz Pharmaceuticals, priority 2013, published 2014).

Settings: pH 4

In the case of `CSCC[C@@H]1NC(=O)[C@H](CC(C)C)NC(=O)[C@H](CCCNC(=N)N)NC(=O)[C@H](CO)NC(=O)[C@@H]2CSSC[C@@H]3NC(=O)[C@H](CO)NC(=O)CNC(=O)[C@H]([C@@H](C)O)NC(=O)[C@H](CSSC[C@H](N)C(=O)N[C@@H](CCCCN)C(=O)NCC(=O)N[C@@H](CCCCN)C(=O)NCC(=O)N[C@@H](C)C(=O)N[C@@H](CCCCN)C(=O)N2)NC(=O)[C@H](CSSC[C@@H](C(N)=O)NC(=O)[C@H](CCCCN)NC(=O)CNC(=O)[C@H](CO)NC(=O)[C@H](CCCNC(=N)N)NC3=O)NC(=O)[C@H](CC(=O)O)NC(=O)[C@H](Cc2ccc(O)cc2)NC1=O` [ziconotide], the solution stability is given as “stable at 45 °C for weeks”.
